Measurements published in patent US9084779B2, “Conjugates of nitroimidazoles and their use as chemotherapeutic agents” (The Johns Hopkins University, priority 2011, dated 2015).
Values after ≈ are worked out from the molar mass of the structure shown.

Columns and labels:
[1] = system: Hep3B human hepatocellular carcinoma cells; test: MTS tetrazolium cell proliferation assay, 72-h exposure; format: cell-based; conditions: normoxic (21% O2), read-out: IC50 Normoxic (N)
Text: Anti-proliferative assay. The human hepatocellular carcinoma cell line Hep3B was purchased from American Type culture Collection (ATCC, Manassas, Va.). Dulbecco's Modified Eagle Medium (DMEM) and penicillin/streptomycin (P/S) were obtained from GIBCO Invitrogen. Fetal Bovine serum (FBS) was obtained from Thermo Scientific Hyclone. Dimethyl sulfoxide (DMSO-Hybri-Max) was purchased from Sigma-Aldrich Co. and the CellTiter 96 AQueous One Solution Cell Proliferation Assay (MTS) was acquired from Promega Corp. Hep3B cells were maintained in DMEM supplemented with 10% FBS and 1× P/S solution. Cultures were incubated at 37° C. in a 5% CO2 atmosphere with 99% humidity. Stock solutions of test compounds were prepared in DMSO for use in the cell culture viability assays.
MTS tetrazolium cell proliferation assay. The viability of Hep3B cells exposed to the synthesized compounds was determined by the MTS assay. Briefly, Hep3B cells were plated in 96-well plates at a density of 3.0×10^3 cells/well and incubated for 24-h before treatment. At the initiation of treatment, the growth media was replaced with 200 μL of media containing increasing concentrations of the test compounds in triplicate wells. The final DMSO concentration in the media was 1.0% including the media added to the control wells minus the test compound. After a 72-hour incubation, 40 μL of MTS solution was added to each well and the plates were incubated for an additional 3.0 hours. The plates were then read at 490 nm on a Biotek Instruments PowerWave 200 microplate reader. For each experiment the percent growth inhibition relative to the control (no drug addition) was calculated and a dose inhibition curve was generated. The concentration of drug required to inhibit cell growth by 50% (IC50) compared to the control cells was then determined by non-linear regression using PSI-Plot software (Poly Software International).
Antiproliferative activity. The anti-cancer activities of the parent compounds 3 and 8 and the conjugated compounds 7a-d and 10a-d were tested against Hep3B human hepatocellular carcinoma cells in culture.

[2] = Determination of water solubility by UV absorbance of a saturated solution; format: physicochemical; conditions: for Increment (solubility): PEG tether compound in comparison with the —CH2CH2— tether compound of the same pair (7c/7a, 7d/7b, 10c/10a, 10d/10b); for solubility at 1 h: thermodynamic from solid, water, saturated solution, sonicated at 25° C., stirred at room temperature 1.0 h, filtered
Procedure: The aqueous solubility of all eight compounds was assessed by using a technique involving measurement of their UV absorbance^29.
Determination of Water Solubility of Compounds 7a-d and 10a-d. A saturated solution was prepared by addition of a test compound (7a-d and 10a-d; ca. 1.00 mg) to water (1.00 mL), which was sonicated at 25° C. for 5.0 min and stirring at room temperature for an additional 1.0 h. After filtration with Millipore filters (0.45-μm-pore-size polyvinylidene fluoride), the supernatant was analyzed by UV spectroscopy with concentration determined from absorbance, standardized against calibration data. Standard curves for each compound were obtained by plotting absorbance against concentration. The concentration range of the standard solutions was 1.0-10 μg/mL. For all standards, their curves were linear with γ>0.996.

[3] = system: Hep3B human hepatocellular carcinoma cells; test: Hypoxia targeting assay, 5-h exposure then 5 days growth, MTS; format: cell-based; conditions: for Ratio IC50 (N)/IC50 (H): normoxic versus hypoxic
Procedure: Hypoxia targeting assay. Hep3B cells, plated in 96-well plates at a density of 3.0×10^3 cells/well, were incubated overnight and then treated with the test compounds for 5.0 hours at under hypoxic (1% O2) or normoxic (21% O2) conditions. Exposure of cells to hypoxia was carried out in a PROOX C-Chamber with O2 and CO2 levels modulated by a PROOX Model C21 Controller (BioSpherix). At the end of the treatment period, the wells were washed with phosphate buffered saline (PBS) and fresh compound-free media was added. The cells were cultured for an additional 5 days under normoxic conditions and then assayed for cell proliferation using the MTS assay.
Hypoxia targeting. Nitroimidazoles are converted to reactive compounds in hypoxic cells. Therefore it is of importance to compare the antiproliferative activities of the nitroimidazole conjugated compounds against Hep3B cells under normoxic and hypoxic conditions. In these experiments, Hep3B cells in culture were treated with each of the conjugated compounds 7c-d, 10c-d, or the parent compounds 3 or 8 for a 5.0-hour period under normoxic (21% O2) or hypoxic (1.0% O2) conditions. After treatment, the cells were returned to normal conditions and assayed for proliferation after 5 days of additional growth. […] The ratio between the IC50 values for each drug under normoxic versus hypoxic culture conditions was computed and used as a measure of the relative increase in potency.

[4] = system: subcutaneous LNCaP prostate cancer cell explants; test: Immunofluorescence analysis of 2-nitroimidazole induced protein adducts in mouse tumor explants; format: in vivo, nude mice; conditions: daily intravenous tail vein injection for three weeks
Procedure: Immunofluorescence analysis of 2-nitroimidazole induced protein adducts in mouse tumor explants. Nude mice with subcutaneous LNCaP prostate cancer cell explants were administered Hydroxyprobe-1, M3N or M3N-PEG-2NI for three weeks by daily intravenous tail vein injection with an additional injection 3 hours prior to euthanization. Tumors were removed from the euthanized mice by dissection and incubated in 30% sucrose/PBS overnight at 4° C. Excess sucrose was removed and the tissue was incubated in 30% sucrose/PBS:OCT (1:1) for 1 hour at room temperature. Afterward the tissue was frozen in 100% OCT. Frozen sections of […] were prepared and fixed in 4% PFA/PBS for 1 hour at room temperature. The sections were blocked overnight at 4° C. with 5% goat serum/PBS or at room temperature for 1 hour and then incubated with Hydroxyprobe-1 rabbit antiserum (1:200) overnight at 4° C. After three washes with PBS, the secondary antibody, mouse anti rabbit-FITC (1:1000) was added for 1 hour at room temperature. The sections were mounted using Vectashield and fluorescently imaged.

[5] = system: LNCaP human prostate cancer cells; test: Western blot analysis of 2-nitroimidazole induced protein adducts in cell culture; format: cell-based; conditions: 80 μM, 6 hours normoxic then 6 hours hypoxic or normoxic
Procedure: Western blot analysis of 2-nitroimidazole induced protein adducts in LNCaP cell cultures. Exponentially growing LNCaP human prostate cancer cells were treated with DMSO, 80 μM M3N-PEG-2NI or Hypoxyprobe-1 in standard media for 6 hours under normoxic conditions and then under hypoxic or normoxic conditions for additional 6 hours. Afterward the media was aspirated, the cells washed and ice cold RIPA lysis buffer was added and the cells lysed on ice for 15 minutes. The samples were centrifuged and the lysate collected. Cellular proteins in the extracts were analyzed for the presence of protein adducts using standard western blotting technique. The primary antibody was PAb2627 polyclonal antibody (1:200) directed against Hydroxyprobe-1 protein adducts. The secondary antibody was Anti-Rabbit HRP conjugate (1:2000). Detection was by chemiluminescence

[6] = system: 786-0 human renal adenocarcinoma cells; test: MTT cell viability assay, 3 days; format: cell-based; conditions: normoxic conditions, 1% DMSO
Procedure: (§1) Additional cell culture, drug treatment and cell viability assays. HT29 human colorectal carcinoma cells, 786-0 human renal adenocarcinoma cells and Hep3B human hepatocellular carcinoma cells were obtained from ATCC and maintained in culture according to their recommendations. […] After the treatment period viability of the cells was determined with the MTT cell viability assay and dose response curves were generated using the calculated values of the percentage viable cells relative to the vehicle control.

[7] = system: HT29 human colorectal carcinoma cells; test: MTT cell viability assay, 3 days; format: cell-based; conditions: normoxic conditions, 1% DMSO
Procedure: as §1

[8] = system: Hep3B human hepatocellular carcinoma cells; test: MTT cell viability assay, 3 days; format: cell-based; conditions: normoxic conditions, 1% DMSO
Procedure: as §1

[9] = system: HT29 human colorectal carcinoma cells; test: Cell viability by plating efficiency (colony formation after replating); format: cell-based; conditions: 40 μM, 48 h, diluted 10,000 fold and replated, colonies stained eight days later
Procedure: FIG. 6 depicts the plating efficiency of HT29 human colorectal carcinoma cells after treatment with DMSO, 40μ M3n and 40μ M3N-PEG-2NI. HT29 cells were treated for 48 h with 40 μM M3N, 40 μM M3N-PEG-2NI or the DMSO vehicle. At the end of the treatment period, the cells were diluted 10,000 fold and replated. Eight days later colonies were stained with methylene blue.
For the further assessment of cell viability by plating efficiency, cells (2×10^6 cells/100 mm dish) from the human colorectal carcinoma cell line HT29 were treated for 48 hours with 40 μM M3N, 40 μM M3N-PEG-2NI or the DMSO vehicle. At the end of the treatment period, the cells from each dish were released by trypsinization, diluted 10,000 fold and replated into new 100 mm dishes. Eight days later colonies were stained with 0.25% methylene blue in 50% ethanol

[10] = hypoxic (1.0% O2), then 5 days normoxic growth, read-out: IC50 Hypoxic (H)
[11] = Homo sapiens, hypoxic (1.0% O2), then 5 days normoxic growth, read-out: IC50 Hypoxic (H)
[12] = Homo sapiens, normoxic (21% O2), then 5 days growth, read-out: IC50 Normoxic (N)

| Molecule | IC50 [1] | Increment (solubility) [2] | solubility at 1 h [2] | Ratio IC50 (N)/IC50 (H) [3] | also measured |
| --- | --- | --- | --- | --- | --- |
| COc1ccc(CC(C)C(C)Cc2ccc(OC)c(OC)c2)cc1O (stereo not drawn) [Compound 3, trimethyl NDGA, reference compound] | – | – | – | 1.58 | IC50 [3, 10]: 99 ± 0.6 µM |
| COc1ccc(CC(C)C(C)Cc2ccc(OC)c(OC)c2)cc1O (stereo not drawn) [Compound 8, trimethyl NDGA, reference compound] | – | – | – | 1.28 | IC50 [3, 10]: 87.6 ± 8.7 µM |
| COc1ccc(C[C@H](C)[C@H](C)Cc2ccc(OC)c(OCCn3cnc([N+](=O)[O-])c3)c2)cc1OC (racemic) [Compound 7a, (±)-(2R,3S)-4-(3,4-Dimethoxyphenyl)-1-[4-methoxy-3-[2-(4-nitro-1H-imidazol-1-yl)ethoxy]phenyl]-2,3-dimethylbutane] | 15.8 ± 1.6 µM | 10.5 fold | 1.76 µg/mL (≈ 3.64 µM) | – | – |
| COc1ccc(C[C@H](C)[C@H](C)Cc2ccc(OC)c(OCCn3ccnc3[N+](=O)[O-])c2)cc1OC (racemic) [Compound 7b, (±)-(2R,3S)-4-(3,4-Dimethoxyphenyl)-1-[4-methoxy-3-[2-(2-nitro-1H-imidazol-1-yl)ethoxy]phenyl]-2,3-dimethylbutane] | 21.8 ± 4.5 µM | 8.1 fold | 1.64 µg/mL (≈ 3.39 µM) | – | – |
| COc1ccc(C[C@H](C)[C@H](C)Cc2ccc(OC)c(OCCOCCOCCOCCn3cnc([N+](=O)[O-])c3)c2)cc1OC (racemic) [Compound 7c, (±)-(2R,3S)-4-(3,4-Dimethoxyphenyl)-1-[4-methoxy-3-[12-(4-nitro-1H-imidazol-1-yl)-1,4,7,10-tetraoxadodecanyl]phenyl]-2,3-dimethylbutane] | 13 ± 5.1 µM | – | 18.5 µg/mL (≈ 30.1 µM) | 1.62 | IC50 [3, 11]: 64.3 ± 15.1 µM; IC50 [3, 12]: 104 ± 17.6 µM |
| Cl.O=[N+]([O-])c1nccn1CC(O)CN1CCCCC1 (stereo not drawn) [Hydroxyprobe-1] | – | – | – | – | Protein adducts in tumor sections by immunofluorescence [4]: Protein-adducts were also found; Protein adducts by western blot (PAb2627 antibody) [5]: showed evidence of protein adducts |
| tri-O-methyl NDGA [Compound M3N, reference compound] | – | – | – | – | IC50 [6]: 36 to 64 µM; IC50 [7]: > 80 µM; IC50 [8]: 15 to 30 µM; Protein adducts in tumor sections by immunofluorescence [4]: little evidence of adduct formation; Protein adducts by western blot (PAb2627 antibody) [5]: No protein adducts were detected; Ability of HT29 cells to replicate after treatment (plating efficiency) [9]: able to replicate after treatment |

Further lines, with some results ahead:

| IC50 [1] | Increment (solubility) [2] | solubility at 1 h [2] | Molecule | Ratio IC50 (N)/IC50 (H) [3] | also measured |
| --- | --- | --- | --- | --- | --- |
| 24.8 ± 8.7 µM | 11.2 fold | 1.7 µg/mL (≈ 3.52 µM) | COc1ccc(C[C@H](C)[C@H](C)Cc2ccc(OCCn3ccnc3[N+](=O)[O-])c(OC)c2)cc1OC (racemic) [Compound 10b, (±)-(2R,3S)-4-(3,4-Dimethoxyphenyl)-1-[3-methoxy-4-[2-(2-nitro-1H-imidazol-1-yl)ethoxy]phenyl]-2,3-dimethylbutane] | – | – |
| 12.5 ± 4.1 µM | – | 10.5 µg/mL (≈ 17.1 µM) | COc1ccc(C[C@H](C)[C@H](C)Cc2ccc(OCCOCCOCCOCCn3cnc([N+](=O)[O-])c3)c(OC)c2)cc1OC (racemic) [Compound 10c, (±)-(2R,3S)-4-(3,4-Dimethoxyphenyl)-1-[3-methoxy-4-[12-(4-nitro-1H-imidazol-1-yl)-1,4,7,10-tetraoxadodecanyl]phenyl]-2,3-dimethylbutane] | 2.69 | IC50 [3, 11]: 52.1 ± 3.8 µM; IC50 [3, 12]: 140 ± 33.5 µM |
| 13.4 ± 3.4 µM | – | 19.1 µg/mL (≈ 31.1 µM) | COc1ccc(C[C@H](C)[C@H](C)Cc2ccc(OCCOCCOCCOCCn3ccnc3[N+](=O)[O-])c(OC)c2)cc1OC (racemic) [Compound 10d, (±)-(2R,3S)-4-(3,4-Dimethoxyphenyl)-1-[3-methoxy-4-[12-(2-nitro-1H-imidazol-1-yl)-1,4,7,10-tetraoxadodecanyl]phenyl]-2,3-dimethylbutane] | 2.42 | IC50 [3, 11]: 49.1 ± 4.9 µM; IC50 [3, 12]: 119 ± 42.8 µM |
| 18.7 ± 4.1 µM | 6.5 fold | 1.63 µg/mL (≈ 3.37 µM) | COc1ccc(C[C@H](C)[C@H](C)Cc2ccc(OCCn3cnc([N+](=O)[O-])c3)c(OC)c2)cc1OC (racemic) [Compound 10a, (±)-(2R,3S)-4-(3,4-Dimethoxyphenyl)-1-[3-methoxy-4-[2-(4-nitro-1H-imidazol-1-yl)ethoxy]phenyl]-2,3-dimethylbutane] | – | – |
